Values quoted from earlier work, collected in patent publication US10016482B2, “Insulin independence among patients with diabetes utilizing an optimized hamster REG3 gamma peptide” (priority 2014, dated 2018).
Read-outs that look alike come from different tables or passages of the source. No end group written: not given here.

Columns and labels:
[1] = test system: patients with type 1 diabetes; settings: for study subjects / patients dropping out of the clinical trials due to local side-effects: man, local injection site reactions (pain, bruising, infection, skin site reactions)
[2] = test system: human extra-islet pancreatic exocrine tissue; settings: in vitro; exocrine ductal tissue separated from endocrine beta cells
[3] = test system: new small islets developing from non-endocrine tissue

IGLHDPSHGTLPNGS [hamster Reg3 gamma peptide, native 15 amino acid hamster Reg3 gamma peptide]
increase in endogenous insulin production ([1]; by day 54, type 1 patients with no baseline c-peptide): 27%
study subjects / patients dropping out of the clinical trials due to local side-effects ([1]; listed as 15-amino acid hamster Reg3 gamma peptide): ⅓
study subjects / patients dropping out of the clinical trials due to local side-effects ([1]; listed as 15 amino acid hamster Reg3gamma peptide): more than ⅓
study subjects / patients dropping out of the clinical trials due to local side-effects ([1]; listed as hamster Reg3 gamma 15 amino acid peptide): ⅓
rise in stimulated c-peptide ([1]; type 1 patients with no detectable c-peptide at baseline): 27%
insulin requirements ([1]; type 1 patients, within 54 days of usage): significant reduction
transformation of exocrine ductal tissue [2]: transform into new beta cells
levels of new islet markers (NGN3, NKX6.1, SOX9, INS) ([3]; five days after treatment): increased levels
increase in the volume of new small islets ([3]; islets developing from non-endocrine tissue): 2 fold
